From PMC10298982, “Stability Characterization of the Novel Anti-Cancer HM-10/10 HDL-Mimetic Peptide” (International Journal of Molecular Sciences, 2023)
Where two headings read alike, the source gives them in different places. Ends that are not written are not given here.

Experiments:
[1] = test system: CYP3A4; assay: CYP3A4 induction (enzyme activity) in single-donor human hepatocytes; format: in vitro ADME; conditions: for Fold Increase (Enzyme Activity) Mean: mean of three lots
[2] = biological target: T1, CYP2B6 (Homo sapiens, UniProt P20813); conditions: microsomes
T1 sequence (P20813 1-491): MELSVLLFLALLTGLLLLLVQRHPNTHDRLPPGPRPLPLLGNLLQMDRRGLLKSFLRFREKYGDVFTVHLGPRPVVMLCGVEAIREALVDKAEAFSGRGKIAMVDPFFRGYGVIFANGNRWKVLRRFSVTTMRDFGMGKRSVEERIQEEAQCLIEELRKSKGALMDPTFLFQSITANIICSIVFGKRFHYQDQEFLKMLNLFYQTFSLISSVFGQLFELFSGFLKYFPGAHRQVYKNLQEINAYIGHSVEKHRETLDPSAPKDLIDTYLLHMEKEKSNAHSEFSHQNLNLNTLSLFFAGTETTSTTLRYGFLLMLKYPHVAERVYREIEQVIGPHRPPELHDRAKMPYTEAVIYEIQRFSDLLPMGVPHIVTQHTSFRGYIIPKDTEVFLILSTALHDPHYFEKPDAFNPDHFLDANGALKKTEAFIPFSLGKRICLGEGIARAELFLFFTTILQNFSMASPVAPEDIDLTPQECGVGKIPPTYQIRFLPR

[3] = Stability in potassium phosphate buffers of pH 1.3, 5.5 and 7.4; format: physicochemical; conditions: potassium phosphate buffer; for remaining at 1 h, 2 µM: read-out: % Remaining at 60 min
Protocol: The stability of HM-10/10 under varying pH conditions was determined by adding the compound to potassium phosphate buffers of pH 1.3 (acidic), 5.5 (slightly acidic), and 7.4 (physiological pH), with 7-Ethoxycoumarin used as a control article. Under acidic and slightly acidic conditions, the half-life of HM-10/10 could not be determined, as the percentage of HM-10/10 was higher at the end of the time course than at the beginning (Table 3, Figure 3). […] Samples were tested at 2 µM.
The instrument was equipped with an electrospray ionization source (600 °C) operated in the positive-ion mode.

[4] = Protein binding in beagle dog plasma (ultracentrifugation); conditions: beagle, dog, plasma (K2EDTA), pH 7.4
[5] = test system: beagle dog plasma proteins; assay: as above; conditions: Beagle dog plasma (K2EDTA); 2 μM; 2.5 h at 37 °C
[6] = Protein binding in Sprague-Dawley rat plasma (ultracentrifugation); conditions: Sprague-Dawley, rat, plasma (K2EDTA), pH 7.4
[7] = test system: Sprague-Dawley rat plasma proteins; assay: as above; conditions: Sprague-Dawley rat plasma (K2EDTA), 2 μM
[8] = Stability in simulated intestinal fluid (SIF); format: in vitro ADME
Protocol: (§1) When developing any potentially oral-route pharmaceutical agent, the denaturing and pepsin-rich environment of the stomach must be considered. The stability of HM-10/10 was tested in simulated gastric fluid (SGF) and simulated intestinal fluid (SIF) over 120 min. […] Samples were tested at 2 μM.
(§2) For the HM-10/10 stability assay in simulated gastric and intestinal fluids, propantheline was used to confirm retention time and carbutamide was used as the internal standard for calculations.

[9] = Stability in simulated gastric fluid (SGF); format: in vitro ADME; conditions: SGF pH 1.3
Protocol: as §1, §2

## LRKLRKRLLRLVGRQLEEFL [HM-10/10, LRKLRKRLLRLVGRQLEEFL]
[1]; 2 µM
  Fold Increase (Enzyme Activity) Lot HH1086: 2.06 fold
  Fold Increase (Enzyme Activity) Lot HH1142: 1.59 fold
  Fold Increase (Enzyme Activity) Lot HH1144: 1.35 fold
  Fold Increase (Enzyme Activity) Mean: 1.67 fold
[1]; 10 µM
  Fold Increase (Enzyme Activity) Lot HH1086: 2.20 fold
  Fold Increase (Enzyme Activity) Lot HH1142: 2.12 fold
  Fold Increase (Enzyme Activity) Lot HH1144: 1.83 fold
  Fold Increase (Enzyme Activity) Mean: 2.05 fold
[1]; 25 µM
  Fold Increase (Enzyme Activity) Lot HH1086: 2.07 fold
  Fold Increase (Enzyme Activity) Lot HH1142: 2.19 fold
  Fold Increase (Enzyme Activity) Lot HH1144: 2.15 fold
  Fold Increase (Enzyme Activity) Mean: 2.14 fold
[2]
  % Inhibition at 50 µM No PI + NADPH: 17.3%
  % Inhibition at 50 µM No PI − NADPH: 25.2%
  % Inhibition at 50 µM PI + NADPH: 28.4%
  % Inhibition at 50 µM PI − NADPH: 42.2%
[3]; Acidic (pH 1.3)
  half-life at 2 µM: > 2 h
  remaining at 1 h, 2 µM: 156%
[3]; Physiological pH (pH 7.4)
  half-life at 2 µM: 7.22 h
  remaining at 1 h, 2 µM: 81.4%
[3]; Slightly Acidic (pH 5.5)
  half-life at 2 µM: > 2 h
  remaining at 1 h, 2 µM: 136%
[4]
  fraction unbound at 2.5 h, 2 µM: 0.648 ± 0.265
  remaining at 2.5 h, 2 µM: 29.2%
[5]
  % Protein Bound Mean ± SD: 35.2 ± 26.5%
  % Protein Free Mean ± SD: 64.8 ± 26.5%
[6]
  fraction unbound at 2.5 h, 2 µM: 0.672 ± 0.094
[7]; 37 °C
  % Stability in Matrix (2.5 h): 36.6%
[7]; 2.5 h at 37 °C
  % Protein Bound Mean ± SD: 32.8 ± 9.4%
  % Protein Free Mean ± SD: 67.2 ± 9.4%
[8]; SIF, 2 μM, 20 min
  Compound detected after 20 min under SIF conditions: no HM-10/10 could be detected
[8]; simulated intestinal fluid (SIF), SIF pH 5.5
  half-life at 2 µM: 2.72 min
[9]
  half-life at 2 µM: 6.2 h
